Source: ChEMBL document CHEMBL3044530, “A simple synthesis of trans-3,4,5-trimethoxycinnamamides and evaluation of their biologic activity” (2013)
Active and inactive are the calls of the source. No cut-off for these calls is given here.

Legend:
Format in all cases: functional
Mus musculus = assay: Antinarcotic activity in morphine-dependent C57BL/6 Mus musculus (mouse) assessed as decrease in naloxane-induced jumping frquency at 20 mg/kg, ip administered QD at 30 min prior to morphine-injection for 7 days followed by naloxane-challenge at 6 hr after last morphine-injection relative to control; parameters: scale not given: the % may be the effect or the level left
Cortical neurone = assay: Neuroprotective activity in ICR Mus musculus (mouse) cortical neurons assessed as protection against glutamate-induced toxicity at 5 to 20 uM after 24 hr by LDH assay
[1] = system: Radical scavenging activity; assay: Antioxidant activity assessed as DPPH radical scavenging activity at 1 mM after 25 min by spectrophotometric analysis

SMILES	Activity (Mus musculus; route intraperitoneal) [%]	Activity (Cortical neurone)	Activity [1] [%]	Activity (Mus musculus)
COc1cc(/C=C/C(=O)N2CCN(C(=O)c3ccccc3)CC2)cc(OC)c1OC	80	Active	> 20	
COc1cc(/C=C/C(=O)NCCO)cc(OC)c1OC	80	Active	> 20	
COc1cc(/C=C/C(=O)N2CCSCC2)cc(OC)c1OC	80	Active	> 20	
COc1cc(/C=C/C(=O)N2CCOCC2)cc(OC)c1OC	80		> 20	
COc1cc(/C=C/C(=O)N2CCN(C(=O)/C=C/c3cc(OC)c(OC)c(OC)c3)CC2)cc(OC)c1OC	80			
COc1cc(/C=C/C(=O)O)cc(OC)c1OC				Active
COc1cc(/C=C/C(=O)NCCCN2CCCC2=O)cc(OC)c1OC	80		> 20	
